Results as given in the supplement of paper PMC11061612.

What was measured:
Test in all cases: combination Emax (second highest fraction inhibited in the dose matrix, 72 h); higher = more inhibition; extreme values may be limits of the assay
[1] = system: ASH-3 (Thyroid Gland Carcinoma)
Summary of the method: (§1)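 After 24 hours at 37°C and 5% CO2 in 1536-well plates, cells in DMEM/F12 or RPMI plus 10% FBS received two-drug dose matrices for 72 hours. Viability came from CellTiter-Glo 2.0 luminescence and was scaled as inhibition, anchored at 0 by vehicle wells and at 1 by blank wells. Combination Emax is taken as the second-highest inhibition in the matrix, and Bliss excess as the observed combination effect less EA + EB − EA·EB, with EA and EB the single-agent effects.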

[2] = system: BT-20 (Breast Carcinoma)
Summary of the method: as §1

[3] = system: EW-18 (Ewing's Sarcoma)
Summary of the method: as §1

[4] = system: GI-1 (Glioblastoma)
Summary of the method: as §1

[5] = system: H-EMC-SS (Chondrosarcoma)
Summary of the method: as §1

[6] = system: IMR-5 (Neuroblastoma)
Summary of the method: as §1

[7] = system: KINGS-1 (Low Grade Glioma)
Summary of the method: as §1

[8] = system: KLE (Endometrial Carcinoma)
Summary of the method: as §1

[9] = system: KP-2 (Pancreatic Carcinoma)
Summary of the method: as §1

[10] = system: KYSE-150 (Esophageal Squamous Cell Carcinoma)
Summary of the method: as §1

[11] = system: MFE-319 (Endometrial Carcinoma)
Summary of the method: as §1

[12] = system: NB7 (Neuroblastoma)
Summary of the method: as §1

[13] = system: NCI-H513 (Other Solid Carcinomas)
Summary of the method: as §1

[14] = system: OCUM-1 (Gastric Carcinoma)
Summary of the method: as §1

[15] = system: RPMI-7951 (Melanoma)
Summary of the method: as §1

[16] = system: TGBC11TKB (Gastric Carcinoma)
Summary of the method: as §1

CCc1c2c(nc3ccc(O)cc13)-c1cc3c(c(=O)n1C2)COC(=O)[C@]3(O)CC [SN-38] + O=C(c1cc(Cc2n[nH]c(=O)c3ccccc23)ccc1F)N1CCN(C(=O)C2CC2)CC1 [Olaparib] (first compound max 0.3 µM, 7x7, partner max 10 µM)
combination Emax [1]: 0.912
combination Emax [2]: 0.855
combination Emax [3]: 0.773
combination Emax [4]: 0.954
combination Emax [5]: 0.676
combination Emax [6]: 1
combination Emax [7]: 0.287
combination Emax [8]: 0.453
combination Emax [9]: 0.55
combination Emax [10]: 0.728
combination Emax [11]: 0.301
combination Emax [12]: 0.967
combination Emax [13]: 0.615
combination Emax [14]: 0.645
combination Emax [15]: 0.948
combination Emax [16]: 0.792
